Assay results as given in patent US8580832B2, “Substituted phenoxy aminothiazolones as estrogen related receptor-α modulators” (Janssen Pharmaceutica N.V., priority 2007, dated 2013).
pEC50: −log10 of the molar value.

Biological target: T1, ERR1 (also known as ERR-α or ERR-1) (Homo sapiens, UniProt P11474)
T1 construct: the ^6His-tagged-ERR1 LBD
T1 sequence (P11474 193-421 limits assumed): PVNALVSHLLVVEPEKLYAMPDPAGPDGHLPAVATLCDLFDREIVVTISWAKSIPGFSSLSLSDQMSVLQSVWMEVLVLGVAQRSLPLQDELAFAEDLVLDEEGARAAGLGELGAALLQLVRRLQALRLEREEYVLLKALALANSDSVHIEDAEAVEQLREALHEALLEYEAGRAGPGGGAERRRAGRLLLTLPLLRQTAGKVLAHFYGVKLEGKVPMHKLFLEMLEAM
Assay: TR-FRET assay: disruption of co-activator peptide binding to ERR1 LBD
Assay type: biochemical
Conditions: 6His-tagged ERR1 LBD 6 nM, GST-SRC-2 peptide 6 nM, 25° C., 4-18 hours; average of 3 independent experiments
Description: Time-Resolved Fluorescence Resonance Energy Transfer (TR-FRET) experiments were performed to examine the functional response of ERR1 (also known as ERR-α or ERR-1) ligands. The TR-FRET assay described herein relied on the conformation of ERR1 for binding to a co-activator peptide: when a test compound binds to ERR1 and alters its conformation, it can disrupt the binding of the co-activator peptide. The components of this homogeneous secondary assay included: the ^6His-tagged-ERR1 LBD, a GST-labeled-hSRC2 co-activator polypeptide and a fluorescent donor/acceptor pair from CIS bio international htrf/bioassays (Bedford, Mass.) using both an α-GST Europium Cryptate (Eu) label and an α^6His-XL665 (allophycocyanin) fluorophore.
For TR-FRET measurements, the reaction was buffered in 25 mM Tris pH 8, 2.5 mM Hepes, 20 mM KCl, 1 mM DTT, and 0.05 mg/mL BSA (-lipids). […] Reactions were allowed to reach equilibrium at 25° C. for 4-18 hours before collecting data on the Analyst from LJL Biosystems (Molecular Devices Sunnyvale, Calif.). […] Dose response curves were fitted using a hyperbolic equation and the data reported is the average of 3 independent experiments.

| pEC50 | Structure (SMILES) |
| --- | --- |
| 7.33 | COc1cc(/C=C2\SC(NCCn3cccn3)=NC2=O)ccc1Oc1ccc(C#N)cc1C(F)(F)F [Example 30, 4-{2-Methoxy-4-[4-oxo-2-(2-pyrazol-1-yl-ethylamino)-4H-thiazol-5-ylidenemethyl]-phenoxy}-3-trifluoromethyl-benzonitrile] |
| 8.22 | COc1cc(/C=C2\SC(N3CCN(C(C)=O)CC3)=NC2=O)ccc1Oc1ccc(C#N)cc1C(F)(F)F [Example 31, 4-{4-[2-(4-Acetyl-piperazin-1-yl)-4-oxo-4H-thiazol-5-ylidenemethyl]-2-methoxy-phenoxy}-3-trifluoromethyl-benzonitrile] |
| 7.68 | COc1cc(/C=C2\SC(NCCO)=NC2=O)ccc1Oc1ccc(C#N)cc1C(F)(F)F [Example 32, 4-{4-[2-(2-Hydroxy-ethylamino)-4-oxo-4H-thiazol-5-ylidenemethyl]-2-methoxy-phenoxy}-3-trifluoromethyl-benzonitrile] |
| 7.82 | COc1cc(/C=C2\SC(NCCN3CCOCC3)=NC2=O)ccc1Oc1ccc(C#N)cc1C(F)(F)F [Example 33, 4-{2-Methoxy-4-[2-(2-morpholin-4-yl-ethylamino)-4-oxo-4H-thiazol-5-ylidenemethyl]-phenoxy}-3-trifluoromethyl-benzonitrile] |
| 7.72 | COc1cc(/C=C2\SC(NC[C@@H](O)CO)=NC2=O)ccc1Oc1ccc(C#N)cc1C(F)(F)F [Example 34, 4-{4-[2-(2R,3-Dihydroxy-propylamino)-4-oxo-4H-thiazol-5-ylidenemethyl]-2-methoxy-phenoxy}-3-trifluoromethyl-benzonitrile] |
| 7.89 | COc1cc(/C=C2\SC(NC[C@H](O)CO)=NC2=O)ccc1Oc1ccc(C#N)cc1C(F)(F)F [Example 35, 4-{4-[2-(2S,3-Dihydroxy-propylamino)-4-oxo-4H-thiazol-5-ylidenemethyl]-2-methoxy-phenoxy}-3-trifluoromethyl-benzonitrile] |
| 8.10 | COc1cc(/C=C2\SC(NCCN3CCCC3=O)=NC2=O)ccc1Oc1ccc(C#N)cc1C(F)(F)F [Example 36, 4-(2-Methoxy-4-{4-oxo-2-[2-(2-oxo-pyrrolidin-1-yl)-ethylamino]-4H-thiazol-5-ylidenemethyl}-phenoxy)-3-trifluoromethyl-benzonitrile] |
| 7.00 | COc1cc(/C=C2\SC(N(C)CCN)=NC2=O)ccc1Oc1ccc(C#N)cc1C(F)(F)F [Example 37, 4-(4-{2-[(2-Amino-ethyl)-methyl-amino]-4-oxo-4H-thiazol-5-ylidenemethyl}-2-methoxy-phenoxy)-3-trifluoromethyl-benzonitrile] |
| 8.05 | CCS(=O)(=O)N1CCN(C2=NC(=O)/C(=C/c3ccc(Oc4ccc(C#N)cc4C(F)(F)F)c(OC)c3)S2)CC1 [Example 38, 4-{4-[2-(4-Ethanesulfonyl-piperazin-1-yl)-4-oxo-4H-thiazol-5-ylidenemethyl]-2-methoxy-phenoxy}-3-trifluoromethyl-benzonitrile] |
| 8.05 | COc1cc(/C=C2\SC(N3CCC(O)C3)=NC2=O)ccc1Oc1ccc(C#N)cc1C(F)(F)F (stereo not drawn) [Example 39, 4-{4-[2-(3-Hydroxy-pyrrolidin-1-yl)-4-oxo-4H-thiazol-5-ylidenemethyl]-2-methoxy-phenoxy}-3-trifluoromethyl-benzonitrile] |
| 8.15 | COc1cc(/C=C2\SC(N3CC(C)OC(C)C3)=NC2=O)ccc1Oc1ccc(C#N)cc1C(F)(F)F (stereo not drawn) [Example 40, 4-{4-[2-(2,6-Dimethyl-morpholin-4-yl)-4-oxo-4H-thiazol-5-ylidenemethyl]-2-methoxy-phenoxy}-3-trifluoromethyl-benzonitrile] |
| 7.74 | N#Cc1ccc(Oc2ccc(/C=C3\SC(N(CCO)CCO)=NC3=O)cc2F)c(C(F)(F)F)c1 [Example 41, 4-(4-{2-[Bis-(2-hydroxy-ethyl)-amino]-4-oxo-4H-thiazol-5-ylidenemethyl}-2-fluoro-phenoxy)-3-trifluoromethyl-benzonitrile] |
| 7.66 | CN1CCN(C2=NC(=O)/C(=C/c3ccc(Oc4ccc(C#N)cc4C(F)(F)F)c(F)c3)S2)CC1=O [Example 43, 4-{2-Fluoro-4-[2-(4-methyl-3-oxo-piperazin-1-yl)-4-oxo-4H-thiazol-5-ylidenemethyl]-phenoxy}-3-trifluoromethyl-benzonitrile] |
| 7.17 | CCS(=O)(=O)N1CCN(C2=NC(=O)/C(=C/c3ccc(Oc4ccc(C#N)cc4C(F)(F)F)c(F)c3)S2)CC1 [Example 44, 4-{4-[2-(4-Ethanesulfonyl-piperazin-1-yl)-4-oxo-4H-thiazol-5-ylidenemethyl]-2-fluoro-phenoxy}-3-trifluoromethyl-benzonitrile] |
| 7.41 | N#Cc1ccc(Oc2ccc(/C=C3\SC(N4CCC(O)C4)=NC3=O)cc2F)c(C(F)(F)F)c1 (stereo not drawn) [Example 45, 4-{2-Fluoro-4-[2-(3-hydroxy-pyrrolidin-1-yl)-4-oxo-4H-thiazol-5-ylidenemethyl]-phenoxy}-3-trifluoromethyl-benzonitrile] |
| 7.72 | CC1CN(C2=NC(=O)/C(=C/c3ccc(Oc4ccc(C#N)cc4C(F)(F)F)c(F)c3)S2)CC(C)O1 (stereo not drawn) [Example 46, 4-{4-[2-(2,6-Dimethyl-morpholin-4-yl)-4-oxo-4H-thiazol-5-ylidenemethyl]-2-fluoro-phenoxy}-3-trifluoromethyl-benzonitrile] |
| 7.72 | N#Cc1ccc(Oc2ccc(/C=C3\SC(N4CCNC(=O)C4)=NC3=O)cc2F)c(C(F)(F)F)c1 [Example 47, 4-{2-Fluoro-4-[4-oxo-2-(3-oxo-piperazin-1-yl)-4H-thiazol-5-ylidenemethyl]-phenoxy}-3-trifluoromethyl-benzonitrile] |
| 8.05 | CN(C)CCCNC1=NC(=O)/C(=C/c2ccc(Oc3ccc(C#N)cc3C(F)(F)F)c(F)c2)S1 [Example 48, 4-{4-[2-(3-Dimethylamino-propylamino)-4-oxo-4H-thiazol-5-ylidenemethyl]-2-fluoro-phenoxy}-3-trifluoromethyl-benzonitrile] |
| 8.00 | N#Cc1ccc(Oc2ccc(/C=C3\SC(NCCCN4CCOCC4)=NC3=O)cc2F)c(C(F)(F)F)c1 [Example 49, 4-{2-Fluoro-4-[2-(3-morpholin-4-yl-propylamino)-4-oxo-4H-thiazol-5-ylidenemethyl]-phenoxy}-3-trifluoromethyl-benzonitrile] |
| 7.92 | CN(CC(O)CO)C1=NC(=O)/C(=C/c2ccc(Oc3ccc(C#N)cc3C(F)(F)F)c(F)c2)S1 (stereo not drawn) [Example 50, 4-(4-{2-[(2,3-Dihydroxy-propyl)-methyl-amino]-4-oxo-4H-thiazol-5-ylidenemethyl}-2-fluoro-phenoxy)-3-trifluoromethyl-benzonitrile] |
| 7.54 | N#Cc1ccc(Oc2ccc(/C=C3\SC(NCCCN4CCCC4=O)=NC3=O)cc2F)c(C(F)(F)F)c1 [Example 51, 4-(2-Fluoro-4-{4-oxo-2-[3-(2-oxo-pyrrolidin-1-yl)-propylamino]-4H-thiazol-5-ylidenemethyl}-phenoxy)-3-trifluoromethyl-benzonitrile] |
| 8.70 | COC(=O)c1ccc(Oc2ccc(/C=C3\SC(N4CC(C(=O)O)C4)=NC3=O)cc2OC)c(C(F)(F)F)c1 [Example 52, 1-{5-[3-Methoxy-4-(4-methoxycarbonyl-2-trifluoromethyl-phenoxy)-benzylidene]-4-oxo-4,5-dihydro-thiazol-2-yl}-azetidine-3-carboxylic acid] |
| 7.38 | COC(=O)c1ccc(Oc2ccc(/C=C3\SC(N4CCCC(O)C4)=NC3=O)cc2OC)c(C(F)(F)F)c1 (stereo not drawn) [Example 53, 4-{4-[2-(3-Hydroxy-piperidin-1-yl)-4-oxo-4H-thiazol-5-ylidenemethyl]-2-methoxy-phenoxy}-3-trifluoromethyl-benzoic acid methyl ester] |
| 7.13 | COC(=O)c1ccc(Oc2ccc(/C=C3\SC(N4CCNC(=O)C4)=NC3=O)cc2OC)c(C(F)(F)F)c1 [Example 54, 4-{2-Methoxy-4-[4-oxo-2-(3-oxo-piperazin-1-yl)-4H-thiazol-5-ylidenemethyl]-phenoxy}-3-trifluoromethyl-benzoic acid methyl ester] |
| 7.80 | CCOc1cc(/C=C2\SC(N3CC(C(=O)O)C3)=NC2=O)ccc1Oc1ccc(C#N)cc1C(F)(F)F [Example 55, 1-{5-[4-(4-Cyano-2-trifluoromethyl-phenoxy)-3-ethoxy-benzylidene]-4-oxo-4,5-dihydro-thiazol-2-yl}-azetidine-3-carboxylic acid] |
| 6.82 | CCOc1cc(/C=C2\SC(N(CCO)CCO)=NC2=O)ccc1Oc1ccc(C#N)cc1C(F)(F)F [Example 56, 4-(4-{2-[Bis-(2-hydroxy-ethyl)-amino]-4-oxo-4H-thiazol-5-ylidenemethyl}-2-ethoxy-phenoxy)-3-trifluoromethyl-benzonitrile] |
| 7.41 | CCOc1cc(/C=C2\SC(N3CCNC(=O)C3)=NC2=O)ccc1Oc1ccc(C#N)cc1C(F)(F)F [Example 57, 4-{2-Ethoxy-4-[4-oxo-2-(3-oxo-piperazin-1-yl)-4H-thiazol-5-ylidenemethyl]-phenoxy}-3-trifluoromethyl-benzonitrile] |
